Experimental data as given in patent US7524811B2, “Anti-angiogenic peptides from the N-terminus of endostatin” (Children's Medical Center Corporation, priority 2003, dated 2009).
“And” between values parts separate entries of the source, which are not always exact repeats. Identical values can stand only once. “Also recorded” adds a separate entry of the source. Blank lines part the entries; values can stand above or below the molecule they belong to. No end group written: not given here.

How the values were obtained:
[1] = tested on: LLC tumors; test: Lewis lung carcinoma (LLC) tumor model, systemic s.c. treatment; format: in vivo, C57B1/6J mice; details: peptide s.c. twice a day, 2.8 mg/kg/d, vs PBS
Description: The murine LLC tumor model (O'Reilly et al. (1994) Cell, 79: 315-328) was used to further characterize these peptides because this tumor grows more rapidly than BxPC-3 cells, allowing for shorter treatment periods. Murine analogs of the endostatin peptides were synthesized. The only difference between the human and murine peptides was that murine P1 peptide contained 27 amino acids instead of 25 amino acids for human P1.
Control mice were treated with PBS. In these experiments, LLC cells were implanted into the s.c. dorsa of C57B1/6J mice, and systemically treated. Peptides (mP1, mP2, mP5, and mP6) were injected (s.c.) twice a day at a dose of 2.8 mg/kg/d, whereas endostatin and PBS were administered once a day at a dose of 20 mg/kg/d.
(§1) BxPC-3 and LLC cells were grown in cell culture as described above. […] Mice were shaved and the dorsal skin was cleaned with ethanol before tumor cell injection. A suspension of 5×10^6 tumor cells in 0.1 ml RPMI-1640 (for BxPC-3) or DMEM (for LLC) was injected subcutaneously (s.c.) into the dorsa of mice at the proximal midline. BxPC-3 cells were implanted in SCID mice and LLC in C57B1/6J mice.
Animals with Lewis Lung carcinoma (600-800 mm^3 tumors) were euthanized, and the skin overlying the tumor was cleaned with Betadine and ethanol. Tumor tissue was excised under aseptic conditions. A suspension of tumor cells in 0.9% normal saline was made by passage of viable tumor tissue through a sieve and a series of sequentially smaller hypodermic needles of diameter 22- to 30-gauge. The final concentration was adjusted to 1×10^7 cells/ml, and the suspension was placed on ice. The injection of tumor cells was performed as described above.
The mice were weighed and tumors were measured every 3-5 days in two diameters with a dial-caliper. Volumes were determined using the formula a^2×b×0.52 (where a is the shortest and b is the longest diameter). Data is represented as volume of treated tumor over control (T/C). At the completion of each experiment, the mice were euthanized with CO2 asphyxiation. Tumors were fixed in 10% buffered Formalin (Fisher Scientific, Fair Lawn, N.J.) and paraffin-embedded.
For treatment of tumor-bearing mice, tumor volumes were allowed to grow to approximately 100 mm^3, and mice were randomized. Treatment was performed by single bolus s.c. injections. Peptides were administered twice a day (every 12 hrs). Doses indicated for peptides were corrected for the purity of peptides (approximately 70%). For example, mice injected with 4 mg/kg/d peptide, were actually injected with 2.8 mg/kg/d after correction. The unpaired Student t-test was used for statistical analysis.

[2] = tested on: human pancreatic tumor cells BxPC-3; test: BxPC-3 tumor model, systemic s.c. treatment; format: in vivo, SCID mice; details: peptide s.c. twice a day, 7 mg/kg/d; for inhibition of BxPC-3 tumor: final measurement at 28 days, n=3, vs PBS
Description: These peptides were initially tested for anti-tumor activity employing the human pancreatic tumor cells BxPC-3 cells, which were implanted in the s.c. dorsa of SCID mice. For systemic treatment, human endostatin peptides, P1-P8, were administered subcutaneously (s.c.) twice a day at 7 mg/kg/d due to the high clearance rate from the mouse circulation. Full-length Fc-Endostatin, hFcES was administered subcutaneously only once per day at a dose of 20 mg/kg/d. PBS was used as a control.
Human BxPC-3 pancreatic adenocarcinoma and Lewis lung carcinoma (LLC) cells were grown and maintained as described earlier (Kisker et al. (2001) Cancer Res, 61:7669-7674; O'Reilly et al. (1994) Cell, 79: 315-328). For BxPC-3 tumor cell injection, cells were grown in 900-cm2 roller bottles. Human microvascular endothelial cells (HMVEC-d; Clonetics, Walkersville, Md.) were cultured in microvascular endothelial cell growth medium (EGM-2 MV; Clonetics) and maintained at 5% CO2 in a 37° C. humidified incubator. Recombinant human endostatin was a generous gift from EntreMed Corporation (Rockville, Md.) and recombinant human and murine FcEndostatin were prepared as described earlier (Bergers et al. (1999) Science, 284: 808-812). Human and murine endostatin peptides were synthesized by SynPep Corporation (Dublin, Calif.). Peptides were resuspended in PBS or 50 mM Tris, 150 mM NaCl, pH 7.5. PECAM, purified rat anti-mouse CD31, was obtained from BD Pharmingen (San Diego, Calif.) and human recombinant VEGF was obtained from the NIH (Bethesda, Md.).
as §1, with “BxPC-3 cells were implanted in SCID mice and LLC in C57B1/6J mice.” left out
The mice were weighed and tumors were measured every 3-5 days in two diameters with a dial-caliper. Volumes were determined using the formula a^2×b×0.52 (where a is the shortest and b is the longest diameter). […]

[3] = tested on: human microvascular endothelial cells (HMVECs); test: VEGF-induced endothelial cell migration, modified Boyden chamber; format: cell-based; details: VEGF 5 ng/ml; for concentration at which VEGF-induced EC migration was inhibited: 25 ng/ml peptide equimolar to 200 ng/ml endostatin
Description: Endostatin peptides were tested for anti-endothelial cell migration activity. Inhibition of VEGF-induced migration of human microvascular endothelial cells (HMVECs) was determined using several doses of endostatin peptides (FIG. 5). Human peptides were used because the cells were of human origin and the migration response of the HMVECs was assayed using a modified Boyden chamber. VEGF (5 ng/ml) was used a chemotactic agent and cells were challenged with human endostatin (Entremed; EM-ES), human Fc-Endostatin (nFcES), human P1 (hP1), human P2 (hP2), human P6 (hP6), and human P1-H1/3A (hP1-H1/3A). Total migration per membrane was quantified from the capture images using Scion Image Software (National Institutes of Health) and the unpaired Student T test was used for statistical analysis.
The motility response of HMVEC-d cells was assayed using a modified Boyden chamber. Cells were plated in T75-cm2 flasks at 0.5×10^6 cells per flask and allowed to grow for 48 h (˜70% confluent) prior to the migration assay. To facilitate cell adhesion, the upper membrane of a transwell ([…]; Costar) was coated with fibronectin ([…]; Becton Dickinson, Bedford, Mass.) for 1 h at 37° C. Coated membranes were rinsed with PBS and allowed to air dry immediately before use. Cells were detached by trypsinization, treated with trypsinization neutralization solution (Clonetics), and resuspended at a final concentration of 1×10^6 cells/ml in serum-free endothelial basal medium (EBM; Clonetics) containing 0.1% BSA. Cells (200,000 in 0.2 ml) were then treated with 0.2 ml of EBM/BSA containing endostatin or peptides at the indicated concentrations. Cells were incubated for 20 min. at 37° C. with occasional shaking. Cells (50,000 in 100 μl) were added to the upper chamber of the transwell. EBM or EBM supplemented with VEGF (5 ng/ml) was added to the lower chamber and cells were allowed to migrate toward the bottom chamber for 4 h in a humidified incubator containing 5% CO2. Transwell filters were rinsed once with PBS and fixed and stained using a Diff-Quik staining kit (Baxter) following the manufacturer's protocol. Non-migrated cells were removed from the upper chamber with a cotton swab. Stained filters were cut out of the chamber and mounted onto slides using Permount (Fisher). The number of migrated cells was measured using microscopy (three fields from each membrane were captured using a 40x objective), and images were captured with a CCD camera using SPOT software. Total migration per membrane was quantified from the captured images using Scion Image software (National Institutes of Health). All experiments were run in triplicate. The unpaired Student t-test was used for statistical analysis.

[4] = tested on: LLC tumors; test: Lewis lung carcinoma (LLC) tumor model, systemic s.c. treatment; format: in vivo, C57B1/6J mice; details: peptide at 14 mg/kg/d
[5] = tested on: vessel density (CD31) of LLC tumors; test: Vessel density (CD31 staining) of LLC tumor sections; format: in vivo, C57B1/6J mice; details: peptide 2.8 mg/kg/d s.c. twice a day
Description: To determine the effect on angiogenesis after mP1 treatment, LLC tumors treated with mP1, mP2, and endostatin at equimolar concentration were analyzed for vessel density (CD31). […] In each case, peptides were administered twice a day s.c. and LLC tumor sections from day 13 were formalin-fixed paraffin-embedded and then stained with CD31 (PECAM). FIG. 2C show the determination of vessel density and the Y axis is expressed as % CD31/high power field (hpf).
To determine if Zn binding is also important for the anti-tumor property of endostatin, mP1 and mP1-H1/3A were tested using the LLC tumor model. Peptides were administered twice a day (s.c.) at a dose of 2.8 mg/kg/d. Peptide mPl inhibited LLC by 42% (p =0.031), whereas mPl-H1/3A had no effect (FIG. 3C). To determine if there was a difference in angiogenesis, vessel density (CD31) of LLC tumors was analyzed after mP1 and mP1-H1/3A treatment. […] The unpaired Student t test was used for statistical analysis.
Tumors were fixed in 10% buffered Formalin overnight at 4° C. The next day, tumors were washed three times in PBS and paraffin-embedded. Sections (5 μm) were permeabilized with 40 μg/ml proteinase K (Roche Diagnostics Corp.) in 0.2 M Tris-HCl buffer (pH 7.6) for 25 minutes at 37° C. and washed with PBS. PECAM (1:250) was incubated at 4° C. overnight. […] Vessel density (average of three fields) was determined by IPLab software. […]

[6] = Water solubility of peptides; format: physicochemical; details: high concentrations, read-out: concentration at which not water soluble
Description: Peptides were approximately 1/7th-1/8th the size of full length endostatin. Three cysteines, 33,165,173, were replaced by alanines (underlined in Table 1), and cysteinel35 was omitted, to prevent the formation of disulfide bonds. Two additional lysines were added at the C-terminal of hP8 to increase its solubility (double underlined). Most peptides were water soluble, except for hP2 at high concentrations (>2.5 mg/ml). Also, all peptides were approximately 70% pure. However, no difference in tumor inhibition was observed when peptides of more than 95% purity were used.

Molecule: ATAQDFQPVLHLVALNTPLSGGMRGIR [mP1-H1/3A]
anti-tumor effect on LLC ([1]; 2.8 mg/kg/day): no effect; also recorded: essentially not affected

Molecule: GSEGPLKPGARIFSFDGKDVLRHPT [hP5]
inhibition of BxPC-3 tumor [2]: 29%

Molecule: GSQGQVQPGARIFSFDGRDVLRHPA [mP5]
anti-tumor effect on LLC [1]: No or insignificant activity

Molecule: HPAWPQKSVWHGSDPSGRRLMESY [mP6]
anti-tumor effect on LLC [1]: No or insignificant activity

Molecule: HPTWPQKSVWHGSDPNGRRLTESY [hP6]
concentration at which VEGF-induced EC migration was inhibited [3]: 100 ng/mL and 200 ng/mL
inhibition of EC migration ([3]; concentrations lower than 100 ng/ml): no inhibition
inhibition of EC migration ([3]; several doses): inhibited EC migration but at higher concentrations than hPl

Molecule: HSHRDFQPVLHLVALNSPLSGGMRG [hP1]
inhibition of BxPC-3 tumor [2]: 39%
concentration at which VEGF-induced EC migration was inhibited [3]: 25 ng/mL
inhibition of EC migration ([3]; at 500 ng/ml): no inhibition
inhibition of EC migration ([3]; several doses): more potent in inhibiting EC migration than full-length endostatin

Molecule: HTHQDFQPVLHLVAL [mP1-15]
anti-tumor effect on LLC [1]: inhibit tumor volume

Molecule: HTHQDFQPVLHLVALNTPLS [mP1-20]
anti-tumor effect on LLC [1]: inhibit tumor volume

Molecule: HTHQDFQPVLHLVALNTPLSGGMRGIR [mP1]
inhibition of LLC tumor ([1]; 2.8 mg/kg/day): 44% and 42%
inhibition of LLC tumor formation [4]: inhibited LLC tumor formation less than at 2.8 mg/kg/d

Molecule: MRGIRGA DFQAFQQARA VGLSGTFR (MRGIRGADFQAFQQARAVGLSGTFR) [mP2]
anti-tumor effect on LLC [1]: No or insignificant activity
inhibition of LLC tumor formation [4]: could inhibit LLC tumor formation as well as mP1 at 2.8 mg/kg/d
effect on vessel density (CD31) [5]: no effect

solubility [6]: > 2500 µg/mL
Molecule: MRGIRGADFQAFQQARAVGLAGTFR [hP2]

Molecule: TFRAFLSSRLQDLYSIVRRADRAAV [hP3]
anti-tumor effect on BxPC-3 ([2]; 28 days): failed to inhibit tumor growth

B1: human endostatin (EntreMed): recombinant human endostatin, gift from EntreMed Corporation (protein, UniProt P39060 1572-1754, looked up)
Endostatin: HSHRDFQPVLHLVALNSPLSGGMRGIRGADFQCFQQARAVGLAGTFRAFLSSRLQDLYSIVRRADRAAVPIVNLKDELLFPSWEALFSGSEGPLKPGARIFSFDGKDVLRHPTWPQKSVWHGSDPNGRRLTESYCETWRTEAPSATGQASSLLGGRLLGQSAASCHHAYIVLCIENSFMTASK
modifications: Endostatin
notes: recombinant human endostatin, gift from EntreMed Corporation
concentration at which VEGF-induced EC migration was inhibited [3]: 200 ng/mL
concentration of best (slightly better) inhibition of EC migration ([3]; U-shaped response): 200 ng/mL
inhibition of EC migration ([3]; at 100 ng/ml): not at 100 ng/ml
